Experimental data from ChEMBL document CHEMBL1128663, “Wiedendiol-A and -B, cholesteryl ester transfer protein inhibitors from the marine sponge Xestospongia wiedenmayeri” (Bioorg Med Chem Lett, 1995).

Experiments:
[1] = molecular target: T1, Cholesteryl ester transfer protein (Homo sapiens, UniProt P11597); assay: Compound was tested for Cholesteryl ester transfer protein (CETP) inhibition by CETP-SPA assay
T1 sequence (P11597 whole entry): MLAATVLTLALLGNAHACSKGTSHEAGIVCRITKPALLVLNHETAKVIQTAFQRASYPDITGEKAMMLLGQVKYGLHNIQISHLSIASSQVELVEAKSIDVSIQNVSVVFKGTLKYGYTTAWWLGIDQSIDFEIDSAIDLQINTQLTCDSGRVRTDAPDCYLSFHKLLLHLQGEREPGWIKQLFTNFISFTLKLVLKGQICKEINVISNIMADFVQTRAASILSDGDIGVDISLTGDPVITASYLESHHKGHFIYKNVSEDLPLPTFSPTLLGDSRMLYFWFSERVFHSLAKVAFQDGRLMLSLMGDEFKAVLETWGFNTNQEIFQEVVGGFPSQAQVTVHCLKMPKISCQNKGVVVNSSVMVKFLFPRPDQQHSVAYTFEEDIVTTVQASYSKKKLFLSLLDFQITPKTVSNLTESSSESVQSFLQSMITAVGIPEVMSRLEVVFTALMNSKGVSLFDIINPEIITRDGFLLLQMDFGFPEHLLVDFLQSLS

[2] = molecular target: T1, Cholesteryl ester transfer protein; assay: Compound was tested for CETP inhibition by a precipitation method to separate lipoproteins after incubation of radiolabeled HDL with LDL and CETP.

IC50 [1] [µM] | IC50 [2] [µM] | SMILES
46 | – | COc1ccc(O)c2c1C[C@]1(C)[C@@H](C)CCC3C(C)(C)CCC[C@]31O2 (some centres not stated)
22 | – | C[C@H]1CCC2C(C)(C)CCC[C@]23Oc2ccc(O)cc2C[C@]13C (some centres not stated)
5 | 0.6 | COc1ccc(O)c(O)c1/C=C1\[C@@H](C)CCC2C(C)(C)CCC[C@]12C (some centres not stated)
5 | 1 | COc1ccc(O)c(O)c1CC1=C(C)CCC2C(C)(C)CCC[C@]12C (some centres not stated)
25 | – | CC1=CCC[C@H]2[C@](C)(Cc3cc(O)ccc3O)[C@@H](C)CC[C@]12C [AVAROL]
0.3 | – | CC1(C)CCC[C@]2(C)C3C=C4C(=CC(=O)C(O)=C4Cl)OC3CC[C@@]12C (some centres not stated) [CHOLOROPUUPEHENONE]
100 | – | C=C1CCC[C@H]2[C@](C)(CC3=C(O)C(=O)C=C(OC)C3=O)[C@@H](C)CC[C@]12C [ILIMAQUINONE]
6 | – | CC1(C)CCC[C@]2(C)[C@H]3C=C4C=C(O)C(=O)C=C4O[C@@]3(C)CC[C@@H]12 [PUUPEHENONE]
196 | – | C[C@]12CC(=O)[C@@H](O)[C@](C)(CO)[C@@H]1CC[C@@]1(C)c3cocc3CC[C@H]21 [SPONGIADIOL]

SMILES | IC50 [1] [µM] | IC50 [2] [µM]
CC1=CC[C@H]2C(C)(C)CCC[C@]2(C)[C@H]1C[C@H](OS(=O)(=O)[O-])[C@H](C)CCCc1ccoc1.C[N+](C)=C(N)N [SULFIRICIN] | > 190 | –
